Assay results taken from US12441733B2, “Substituted 2,4-dioxotetrahydropyrimidines as intermediates in the synthesis of bruton's tyrosine kinase inhibitors” (Novartis AG, priority 2018, dated 2025).

tested on: OCI-LY3 cells; experiment: Resazurin cell viability (proliferation) assay in OCI-LY3 DLBCL cells; format: cell-based; settings: Homo sapiens, OCI-LY3 cells (BTK independent), 72 h, 50% growth inhibition vs vehicle, read-out: OCI-LY3 Prol GI50
Procedure, shortened: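 Cells were seeded at 1×10^4 per well and dosed 3 h later: 8-point 1:4 dilutions from 10 μM (OCI-LY3), in triplicate, 72 h at 37 °C. Resazurin (13 μg/ml final) was added for the last 2 h and fluorescence read at 530/600 nm. GI50 is relative to DMSO vehicle, typically from ≥2 independent experiments.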

`COc1ccc(C(=O)N2CCC3(CCN(Cc4ccc(-c5cc6c(-c7cc(F)cc(NC(=O)c8ccc(C(C)(C)O)cc8F)c7C)ncnc6[nH]5)cc4)CC3)CC2)cc1N1CCC(=O)NC1=O` [Compound 9, N-(3-(6-(4-((9-(3-(2,4-Dioxotetrahydropyrimidin-1(2H)-yl)-4-methoxybenzoyl)-3,9-diazaspiro[5.5]undecan-3-yl)methyl)phenyl)-7H-pyrrolo[2.3-d]pyrimidin-4-yl)-5-fluoro-2-methylphenyl)-2-fluoro-4-(2-hydroxypropan-2-yl)benzamide] and `COc1ccc(C(=O)N2CCC3(CCN(CCc4ccc(-c5cc6c(-c7cc(F)cc(NC(=O)c8ccc(C(C)(C)O)cc8F)c7C)ncnc6[nH]5)cc4)CC3)CC2)cc1N1CCC(=O)NC1=O` [Compound 31, N-(3-(6-(4-(2-(9-(3-(2,4-Dioxotetrahydropyrimidin-1(2H)-yl)-4-methoxybenzoyl)-3,9-diazaspiro[5.5]undecan-3-yl)ethyl)phenyl)-7H-pyrrolo[2,3-d]pyrimidin-4-yl)-5-fluoro-2-methylphenyl)-2-fluoro-4-(2-hydroxypropan-2-yl)benzamide] are within 1.5-fold of each other in GI50: 3.87 µM for the first, 5.64 µM for the second.

`Cc1ccc(C(=O)N2CCC3(CCN(CCc4ccc(-c5cc6c(-c7cc(F)cc(NC(=O)c8ccc(C(C)(C)O)cc8F)c7C)ncnc6[nH]5)cc4)CC3)CC2)cc1N1CCC(=O)NC1=O` [Compound 5, N-(3-(6-(4-(2-(9-(3-(2,4-Dioxotetrahydropyrimidin-1(2H)-yl)-4-methylbenzoyl)-3,9-diazaspiro[5.5]undecan-3-yl)ethyl)phenyl)-7H-pyrrolo[2,3-d]pyrimidin-4-yl)-5-fluoro-2-methylphenyl)-2-fluoro-4-(2-hydroxypropan-2-yl)benzamide] and `Cc1c(NC(=O)c2ccc(C(C)(C)O)cc2F)cc(F)cc1-c1ncnc2[nH]c(-c3ccc(CCN4CCC5(CC4)CCN(C(=O)c4ccc(F)c(N6CCC(=O)NC6=O)c4)CC5)cc3)cc12` [Compound 47, N-(3-(6-(4-(2-(9-(3-(2,4-dioxotetrahydropyrimidin-1(2H)-yl)-4-fluorobenzoyl)-3,9-diazaspiro[5.5]undecan-3-yl)ethyl)phenyl)-7H-pyrrolo[2,3-d]pyrimidin-4-yl)-5-fluoro-2-methylphenyl)-2-fluoro-4-(2-hydroxypropan-2-yl)benzamide] are within 1.5-fold of each other in GI50: 6.55 µM for the first, 4.58 µM for the second.

Going from `Cc1c(NC(=O)c2ccc(C(C)(C)O)cc2F)cc(F)cc1-c1ncnc2[nH]c(-c3ccc(COC4CCN(CCC5CCN(C(=O)c6ccc(F)c(N7CCC(=O)NC7=O)c6)CC5)CC4)cc3)cc12` [Compound 6, N-(3-(6-(4-(((1-(2(1-(3-(2,4-dioxotetrahydropyrimidin-1(2H)-yl)-4-fluorobenzoyl)piperidin-4-yl)ethyl)piperidin-4-yl)oxyl)methyl)phenyl)-7H-pyrrolo[2,3-d]pyrimidin-4-yl)-5-fluoro-2-methylphenyl)-2-fluoro-4-(2-hydroxypropan-2-yl)benzamide] to `COc1ccc(C(=O)N2CCC(OC3CCN(CCc4ccc(-c5cc6c(-c7cc(F)cc(NC(=O)c8ccc(C(C)(C)O)cc8F)c7C)ncnc6[nH]5)cc4)CC3)CC2)cc1N1CCC(=O)NC1=O` [Compound 34, N-(3-(6-(4-(2-(4-((1-(3-(2,4-Dioxotetrahydropyrimidin-1(2H)-yl)-4-methoxybenzoyl)piperidin-4-yl)oxyl)piperidin-1-yl)ethyl)phenyl)-7H-pyrrolo[2,3-d]pyrimidin-4-yl)-5-fluoro-2-methylphenyl)-2-fluoro-4-(2-hydroxypropan-2-yl)benzamide], the GI50 rises from 3.43 µM to greater than 10 µM.

`COc1ccc(C(=O)N2CCC3(CC2)CCN(C(C)(C)Cc2ccc(-c4cc5c(-c6cc(F)cc(NC(=O)c7ccc(C(C)(C)O)cc7F)c6C)ncnc5[nH]4)cc2)CC3)cc1N1CCC(=O)NC1=O` [Compound 20, N-(3-(6-(4-(2-(9-(3-(2,4-Dioxotetrahydropyrimidin-1(2H)-yl)-4-methoxybenzoyl)-3,9-diazaspiro[5.5]undecan-3-yl)-2-methylpropyl)phenyl)-7H-pyrrolo[2,3-d]pyrimidin-4-yl)-5-fluoro-2-methylphenyl)-2-fluoro-4-(2-hydroxypropan-2-yl)benzamide] and `Cc1c(NC(=O)c2ccc(C(C)(C)O)cc2F)cc(F)cc1-c1ncnc2[nH]c(-c3ccc(CN4CCC5(CC4)CCN(C(=O)c4ccc(F)c(N6CCC(=O)NC6=O)c4)CC5)cc3)cc12` [Compound 14, N-(3-(6-(4-((9-(3-(2,4-Dioxotetrahydropyrimidin-1(2H)-yl)-4-fluorobenzoyl)-3,9-diazaspiro[5.5]undecan-3-yl)methyl)phenyl)-7H-pyrrolo[2.3-d]pyrimidin-4-yl)-5-fluoro-2-methylphenyl)-2-fluoro-4-(2-hydroxypropan-2-yl)benzamide] are within 1.5-fold of each other in GI50: 7.9 µM for the first, 5.98 µM for the second.

First: Cc1cc(F)c(C(=O)NCCCCCNCc2ccc(-c3cc4c(-c5cc(F)cc(NC(=O)c6ccc(C(C)(C)O)cc6F)c5C)ncnc4[nH]3)cc2)cc1N1CCC(=O)NC1=O [Compound 29, 5-(2,4-Dioxotetrahydropyrimidin-1(2H)-yl)-2-fluoro-N—(S-((4-(4-(5-fluoro-3-(2-fluoro-4-(2-hydroxypropan-2-yl)benzamido)-2-methylphenyl)-7H-pyrrolo[2,3-d]pyrimidin-6-yl)benzyl)amino)pentyl)-4-methylbenzamide]
Second: Cc1ccc(C(=O)N(C)CCCCCNCc2ccc(-c3cc4c(-c5cc(F)cc(NC(=O)c6ccc(C(C)(C)O)cc6F)c5C)ncnc4[nH]3)cc2)cc1N1CCC(=O)NC1=O [Compound 30, 3-(2,4-Dioxotetrahydropyrimidin-1(2H)-yl)-N-(5-((4-(4-(5-fluoro-3-(2-fluoro-4-(2-hydroxypropan-2-yl)benzamido)-2-methylphenyl)-7H-pyrrolo[2,3-d]pyrimidin-6-yl)benzyl)amino)pentyl)-N,4-dimethylbenzamide]
The GI50 of the first is lower: 8.62 µM for the first, greater than 10 µM for the second.

Going from `COc1ccc(C(=O)NCCN2CCOC3(CCN(Cc4ccc(-c5cc6c(-c7cc(F)cc(NC(=O)c8ccc(C(C)(C)O)cc8F)c7C)ncnc6[nH]5)cc4)CC3)C2)cc1N1CCC(=O)NC1=O` [Compound 39, N-(3-(6-(4-((4-(2-(3-(2,4-dioxotetrahydropyrimidin-1(2H)-yl)-4-methoxybenzamido)ethyl)-1-oxa-4,9-diazaspiro[5.5]undecan-9-yl)methyl)phenyl)-7H-pyrrolo[2,3-d]pyrimidin-4-yl)-5-fluoro-2-methylphenyl)-2-fluoro-4-(2-hydroxypropan-2-yl)benzamide] to `COc1ccc(C(=O)NCCN2CCC3(CC2)CCN(Cc2ccc(-c4cc5c(-c6cc(F)cc(NC(=O)c7ccc(C(C)(C)O)cc7F)c6C)ncnc5[nH]4)cc2)CC3)cc1N1CCC(=O)NC1=O` [Compound 44, N-(3-(6-(4-((9-(2-(3-(2,4-dioxotetrahydropyrimidin-1(2H)-yl)-4-methoxybenzamido)ethyl)-3,9-diazaspiro[5.5]undecan-3-yl)methyl)phenyl)-7H-pyrrolo[2,3-d]pyrimidin-4-yl)-5-fluoro-2-methylphenyl)-2-fluoro-4-(2-hydroxypropan-2-yl)benzamide], the GI50 falls from 7.16 µM to 3.05 µM (2.3-fold).

`COc1ccc(C(=O)N2CCN(C(=O)N3CCN(Cc4ccc(-c5cc6c(-c7cc(F)cc(NC(=O)c8ccc(C(C)(C)O)cc8F)c7C)ncnc6[nH]5)cc4)CC3)CC2)cc1N1CCC(=O)NC1=O` [Compound 22, N-(3-(6-(4-((4-(4-(3-(2,4-Dioxotetrahydropyrimidin-1(2H)-yl)-4-methoxybenzoyl)piperazine-1-carbonyl)piperazin-1-yl)methyl)phenyl)-7H-pyrrolo[2,3-d]pyrimidin-4-yl)-5-fluoro-2-methylphenyl)-2-fluoro-4-(2-hydroxypropan-2-yl)benzamide] and `COc1ccc(C(=O)N2CCC(OC3CCN(Cc4ccc(-c5cc6c(-c7cc(F)cc(NC(=O)c8ccc(C(C)(C)O)cc8F)c7C)ncnc6[nH]5)cc4)CC3)CC2)cc1N1CCC(=O)NC1=O` [Compound 8, N-(3-(6-(4-((4-((1-(3-(2,4-dioxotetrahydropyrimidin-1(2H)-yl)-4-methoxybenzoyl)piperidin-4-yl)oxyl)piperidin-1-yl)methyl)phenyl)-7H-pyrrolo[2,3-d]pyrimidin-4-yl)-5-fluoro-2-methylphenyl)-2-fluoro-4-(2-hydroxypropan-2-yl)benzamide] are within 1.5-fold of each other in GI50: 4.11 µM for the first, 4.85 µM for the second.

First: COc1ccc(C(=O)N2CCC(CN3CCC(Oc4ccc(-c5cc6c(-c7cc(F)cc(NC(=O)c8ccc(C(C)(C)O)cc8F)c7C)ncnc6[nH]5)cc4)CC3)CC2)cc1N1CCC(=O)NC1=O [Compound 19, N-(3-(6-(4-((1-((1-(3-(2,4-Dioxotetrahydropyrimidin-1(2H)-yl)-4-methoxybenzoyl)piperidin-4-yl)methyl)piperidin-4-yl)oxyl)phenyl)-7H-pyrrolo[2,3-d]pyrimidin-4-yl)-5-fluoro-2-methylphenyl)-2-fluoro-4-(2-hydroxypropan-2-yl)benzamide]
Second: COc1ccc(C(=O)N2CCN(CCCCNCc3ccc(-c4cc5c(-c6cc(F)cc(NC(=O)c7ccc(C(C)(C)O)cc7F)c6C)ncnc5[nH]4)cc3)CC2)cc1N1CCC(=O)NC1=O [Compound 40, N-(3-(6-(4-(((4-(4-(3-(2,4-dioxotetrahydropyrimidin-1(2H)-yl)-4-methoxybenzoyl)piperazin-1-yl)butyl)amino)methyl)phenyl)-7H-pyrrolo[2,3-d]pyrimidin-4-yl)-5-fluoro-2-methylphenyl)-2-fluoro-4-(2-hydroxypropan-2-yl)benzamide]
The GI50 of the first is lower: 4.46 µM for the first, greater than 10 µM for the second.

Compound `Cc1c(NC(=O)c2ccc(C(C)(C)O)cc2F)cc(F)cc1-c1ncnc2[nH]c(-c3ccc(CCN4CCC5(CC4)CCN(C(=O)c4cccc(N6CCC(=O)NC6=O)c4)CC5)cc3)cc12` [Compound 12, N-(3-(6-(4-(2-(9-(3-(2,4-Dioxotetrahydropyrimidin-1(2H)-yl)benzoyl)-3,9-diazaspiro[5,5]undecan-3-yl)ethyl)phenyl)-7H-pyrrolo[2,3-d]pyrimidin-4-yl)-5-fluoro-2-methylphenyl)-2-fluoro-4-(2-hydroxypropan-2-yl)benzamide] has a GI50 of 3.83 µM.
